doi:10.1101/2021.10.07.463234v2 (biorxiv, 2021)
Structures can show the parent of a compound that is named as a salt. Square brackets hold non-standard residues; d marks the D form. Peptide text beside a SMILES is read from it. pGlu = O=C1CC[C@@H](C(=O)O)N1; Thz = O=C(O)[C@@H]1CSCN1

These compounds were tested against SARS-CoV-2 Mac1 (Severe acute respiratory syndrome coronavirus 2, UniProt P0DTD1) (assay: biochemical). Conditions: 100 µM; inhibitor.

SMILES | %inhibition
CCCN[C@H]1CCc2nc(N)sc2C1 [Pramipexole 2HCl Monohydrate] | 5.796%
CCCN[C@H]1CCc2nc(N)sc2C1 [Pramipexole dihydrochloride] | 10.17%
CCCN[C@H]1CCc2nc(N)sc2C1 [Pramipexole] | 0%
CC(=O)Oc1cc2c(s1)CCN(C(C(=O)C1CC1)c1ccccc1F)C2 (stereo not shown) [Prasugrel Hydrochloride] | 0%
CC(=O)Oc1cc2c(s1)CCN(C(C(=O)C1CC1)c1ccccc1F)C2 (stereo not shown) [Prasugrel] | 25.16%

Same assay, conditions: read-out: %inhibition

SMILES | inhibition at 100 µM
Nc1nc(O)c2ncn(CCC(CO)CO)c2n1 [Penciclovir] | 14.9%
OC1(c2ccc(Cl)c(C(F)(F)F)c2)CCN(CCCC(c2ccc(F)cc2)c2ccc(F)cc2)CC1 [Penfluridol] | 5.86%
CC(C)(S)[C@@H](N)C(=O)O [Penicillamine] | 0.561%
CC1(C)S[C@@H]2[C@H](NC(=O)Cc3ccccc3)C(=O)N2[C@H]1C(=O)O [Penicillin G Sodium] | 5.64%
CC1(C)S[C@@H]2[C@H](NC(=O)COc3ccccc3)C(=O)N2[C@H]1C(=O)O [Penicillin V potassium salt] | 0%
N=C(N)c1ccc(OCCCCCOc2ccc(C(=N)N)cc2)cc1 [Pentamidine isethionate] | 0%
CC(=O)CCCCn1c(=O)c2c(ncn2C)n(C)c1=O [Pentoxifylline] | 19.6%
CCN(CC)CCOCCOC(=O)C1(c2ccccc2)CCCC1 [Pentoxyverine Citrate] | 24.6%
CCCN1C[C@H](CSC)C[C@@H]2c3cccc4[nH]cc(c34)C[C@H]21 [Pergolide Mesylate] | 7.58%
CCC[C@H](N[C@@H](C)C(=O)N1[C@H](C(=O)O)C[C@@H]2CCCC[C@@H]21)C(=O)OCC [Perindopril Erbumine] | 5.79%
OCCN1CCN(CCCN2c3ccccc3Sc3ccc(Cl)cc32)CC1 [Perphenazine] | 0%
FC(F)(F)c1ccc(CNc2ccc(Cc3c[nH]c4ncc(Cl)cc34)cn2)cn1 [Pexidartinib (PLX3397)] | 0.21%
Cc1ccc(-n2nc(C(C)(C)C)cc2NC(=O)NCc2cc(F)ccc2Oc2ccc3c(cnn3CCO)c2)cc1 [Pexmetinib (ARRY-614)] | 0.769%
CCOc1ccc(NC(C)=O)cc1 [Phenacetin] | 11.4%
Nc1ccc(/N=N/c2ccccc2)c(N)n1 [Phenazopyridine HCl] | 17%
N=C(N)NC(=N)NCCc1ccccc1 [Phenformin HCl] | 30.5%
O=C1c2ccccc2C(=O)C1c1ccccc1 [Phenindione] | 28.8%
CN(C)CCC(c1ccccc1)c1ccccn1 (stereo not shown) [Pheniramine Maleate] | 9.19%
c1ccc2c(c1)Nc1ccccc1S2 [Phenothiazine] | 18.2%
CC(COc1ccccc1)N(CCCl)Cc1ccccc1 (stereo not shown) [Phenoxybenzamine HCl] | 0%
Cc1ccc(N(CC2=NCCN2)c2cccc(O)c2)cc1 [Phentolamine Mesylate] | 0%
CCCCC1C(=O)N(c2ccccc2)N(c2ccccc2)C1=O [Phenylbutazone] | 0%
CNC[C@H](O)c1cccc(O)c1 [Phenylephrine HCl] | 14.5%
O=C1N=C(O)NC1(c1ccccc1)c1ccccc1 [Phenytoin Sodium] | 16%
O=C1NC(=O)C(c2ccccc2)(c2ccccc2)N1 [Phenytoin] | 14.7%
CC(=O)NS(=O)(=O)c1ccc(NC(=O)c2ccccc2C(=O)O)cc1 [Phthalylsulfacetamide] | 6.67%

SMILES | inhibition at 100 µM
CS(=O)(=O)N1CCN(Cc2cc3nc(-c4cccc5[nH]ncc45)nc(N4CCOCC4)c3s2)CC1 [Pictilisib (GDC-0941)] | 10.2%
O=C1CC[C@@H](C(=O)N2CSC[C@H]2C(=O)O)N1 [Pidotimod] ([pGlu]-[Thz]-OH) | 4.19%
COc1ccc(Cl)c(Nc2nc3ccccc3nc2NS(=O)(=O)c2cccc(NC(=O)C(C)(C)N)c2)c1 [Pilaralisib (XL147)] | 31.9%
CC[C@@H]1C(=O)OC[C@@H]1Cc1cncn1C [Pilocarpine HCl] | 0%
CC(C)COc1ccc(CNC(=O)N(Cc2ccc(F)cc2)C2CCN(C)CC2)cc1 [Pimavanserin] | 1.16%
CC[C@@H]1/C=C(\C)C[C@H](C)C[C@H](OC)[C@H]2O[C@@](O)(C(=O)C(=O)N3CCCC[C@H]3C(=O)O[C@H](/C(C)=C/[C@@H]3CC[C@H](Cl)[C@H](OC)C3)[C@H](C)[C@@H](O)CC1=O)[C@H](C)C[C@@H]2OC [Pimecrolimus] | 25.5%
COc1ccc(-c2nc3cc(C4=NNC(=O)CC4C)ccc3[nH]2)cc1 (stereo not shown) [Pimobendan] | 13%
O=c1[nH]c2ccccc2n1C1CCN(CCCC(c2ccc(F)cc2)c2ccc(F)cc2)CC1 [Pimozide] | 0%
CCc1ccc(CCOc2ccc(CC3SC(=O)NC3=O)cc2)nc1 (stereo not shown) [Pioglitazone] | 0%
CCn1cc(C(=O)O)c(=O)c2cnc(N3CCNCC3)nc21 [Pipemidic acid] | 0%
CCN1CCN(C(=O)N[C@@H](C(=O)N[C@@H]2C(=O)N3[C@@H]2SC(C)(C)[C@@H]3C(=O)O)c2ccccc2)C(=O)C1=O [Piperacillin Sodium] | 24.2%
C1CNCCN1 [Piperazine] | 5.65%
O=C(/C=C/C=C/c1ccc2c(c1)OCO2)N1CCCCC1 [Piperine] | 0%
NC(=O)CN1CCCC1=O [Piracetam] | 9.88%
Cc1ccc(=O)n(-c2ccccc2)c1 [Pirfenidone] | 15.4%
CCn1cc(C(=O)O)c(=O)c2cnc(N3CCCC3)nc21 [Piromidic Acid] | 10.1%
CN1C(C(=O)Nc2ccccn2)=C(O)c2ccccc2S1(=O)=O [Piroxicam] | 38%
O=C(O)C[C@H](O)C[C@H](O)/C=C/c1c(C2CC2)nc2ccccc2c1-c1ccc(F)cc1 [Pitavastatin Calcium] | 13.3%
CN1CCC(=C2c3ccccc3CCc3sccc32)CC1 [Pizotifen Malate] | 0%
c1cc(CN2CCCNCCNCCCNCC2)ccc1CN1CCCNCCNCCCNCC1 [Plerixafor (AMD3100)] | 8.18%
Nc1cccc2c1C(=O)N(C1CCC(=O)NC1=O)C2=O (stereo not shown) [Pomalidomide] | 0%
Cc1ccc(C(=O)Nc2ccc(CN3CCN(C)CC3)c(C(F)(F)F)c2)cc1C#Cc1cnc2cccnn12 [Ponatinib (AP24534)] | 5.09%
CCC/N=C1\S/C(=C\c2ccc(OC[C@H](O)CO)c(Cl)c2)C(=O)N1c1ccccc1C [Ponesimod] | 0%
CC[C@@H]([C@H](C)O)n1ncn(-c2ccc(N3CCN(c4ccc(OC[C@@H]5CO[C@@](Cn6cncn6)(c6ccc(F)cc6F)C5)cc4)CC3)cc2)c1=O [Posaconazole] | 37.1%
C[C@]12CCC(=O)C=C1C=C[C@@H]1[C@@H]2CC[C@@]2(C)[C@H]1CC[C@@]2(O)CCC(=O)O [Potassium Canrenoate] | 0%
CC(=O)O [Potassium acetate] | 11.3%

SMILES | inhibition at 100 µM
C=CN1CCCC1=O [Povidone iodine] | 0%
C=CC(=O)N1CCC(Oc2cc3c(Nc4ccc(Cl)c(Cl)c4F)ncnc3cc2OC)CC1 [Poziotinib (HM781-36B)] | 0%
CCCCc1nc2cc(/C=C/C(=O)NO)ccc2n1CCN(CC)CC [Pracinostat (SB939)] | 3.38%
C#CCC(Cc1cnc2nc(N)nc(N)c2n1)c1ccc(C(=O)N[C@@H](CCC(=O)O)C(=O)O)cc1 (stereo partly shown) [Pralatrexate] | 13.2%
C[n+]1ccccc1C=NO [Pralidoxime Iodide] | 22.4%
C[n+]1ccccc1/C=N/O [Pralidoxime chloride] | 8.15%
CC(C)N(CCNC(=O)CN1CCCC1=O)C(C)C [Pramiracetam] | 1.25%
CCCCOc1ccc(OCCCN2CCOCC2)cc1 [Pramoxine HCl] | 25.7%
O=C(Nc1cccc2c(=O)cc(-c3nnn[nH]3)oc12)c1ccc(OCCCCc2ccccc2)cc1 [Pranlukast] | 4.22%
CC(C(=O)O)c1ccc2c(c1)Cc1cccnc1O2 (stereo not shown) [Pranoprofen] | 17.8%
CC[C@H](C)C(=O)O[C@H]1C[C@H](O)C=C2C=C[C@H](C)[C@H](CC[C@@H](O)C[C@@H](O)CC(=O)O)[C@H]21 [Pravastatin sodium] | 28.2%
O=C(C1CCCCC1)N1CC(=O)N2CCc3ccccc3C2C1 (stereo not shown) [Praziquantel] | 0%
COc1cc2nc(N3CCN(C(=O)c4ccco4)CC3)nc(N)c2cc1OC [Prazosin HCl] | 17.1%
CC(=O)OCC(=O)[C@@]1(O)CC[C@H]2[C@@H]3CCC4=CC(=O)C=C[C@]4(C)[C@H]3[C@@H](O)C[C@@]21C [Prednisolone Acetate] | 15.9%
C[C@]12C=CC(=O)C=C1CC[C@@H]1[C@@H]2[C@@H](O)C[C@@]2(C)[C@H]1CC[C@]2(O)C(=O)CO [Prednisolone] | 31%
C[C@]12C=CC(=O)C=C1CC[C@@H]1[C@@H]2C(=O)C[C@@]2(C)[C@H]1CC[C@]2(O)C(=O)CO [Prednisone] | 0%
CC(=O)[C@H]1CC[C@H]2[C@@H]3CC=C4C[C@@H](O)CC[C@]4(C)[C@H]3CC[C@]12C [Pregnenolone] | 14.7%
CCCNC(C)C(=O)Nc1ccccc1C (stereo not shown) [Prilocaine hydrochloride] | 0%
COc1cc(NC(C)CCCN)c2ncccc2c1 (stereo not shown) [Primaquine Diphosphate] | 5.42%
CCC1(c2ccccc2)C(=O)NCNC1=O [Primidone] | 7.21%
CCCC(C(=O)OCCN(CC)CC)(c1ccccc1)c1ccccc1 [Proadifen HCl] | 15.2%
CC(C)(Sc1cc(C(C)(C)C)c(O)c(C(C)(C)C)c1)Sc1cc(C(C)(C)C)c(O)c(C(C)(C)C)c1 [Probucol] | 6.54%
CCN(CC)CCNC(=O)c1ccc(N)cc1 [Procainamide HCl] | 17.1%
CCN(CC)CCOC(=O)c1ccc(N)cc1 [Procaine] | 0%
CNNCc1ccc(C(=O)NC(C)C)cc1 [Procarbazine HCl] | 0%
